The values that follow come from PubChem BioAssay (NCI).

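Each compound was tested at five concentrations against cells in 96-well plates for 48 hours. TGI denotes the concentration required for complete inhibition of growth.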

Some test systems named below: A549 NSCLC; HCT-116 colon; HOP-62 NSCLC; HT29 colon; IGROV1 ovarian; MCF7 breast; NCI-H460 lung; OVCAR-4 ovarian; U251 CNS; UACC-257 melanoma.
What all share (assay): NCI-60 cell line screen, 48 h

Turning to `N=C(N)SCc1cccc([N+](=O)[O-])c1`, the TGI in the assay with A549 NSCLC was above 100 µM; with HCT-116 colon, above 83.7 µM; in the assay on HOP-62 NSCLC, above 78.1 µM; with HT29 colon, 85.1 µM; in the assay with IGROV1 ovarian, above 100 µM; in the assay with MCF7 breast it was above 83.8 µM. Further, the TGI is above 100 µM in the assay with NCI-H460 lung, above 83.1 µM in the assay with OVCAR-4 ovarian, 97.3 µM in the assay on U251 CNS and above 75 µM with UACC-257 melanoma.

Take `O=c1c2cc(S(=O)(=O)O)ccc2nc(COc2ccc(Oc3ccc(Cl)cc3Cl)cc2)n1C(=S)Nc1ccc(Cl)cc1`: the TGI in the assay on A549 NSCLC was 53.1 µM; with HCT-116 colon it was 53.3 µM; in the assay with HOP-62 NSCLC, 44.4 µM; with HT29 colon, 36.4 µM; with IGROV1 ovarian, above 100 µM; in the assay on MCF7 breast it was 38.3 µM. Moreover, the TGI with NCI-H460 lung worked out at 35.8 µM; in the assay on OVCAR-4 ovarian it was 59.3 µM; in the assay on U251 CNS it was 35.5 µM; in the assay with UACC-257 melanoma, 60.5 µM.

Take `c1c2c(cc3c1OCO3)-c1cc3ccc4c(c3c[n+]1CC2)OCO4`: the TGI in the assay with A549 NSCLC is above 12.5 µM; in the assay on HCT-116 colon, above 5.82 µM; in the assay with HOP-62 NSCLC, above 12.5 µM; with HT29 colon it was above 12.5 µM; in the assay on IGROV1 ovarian, above 12.5 µM; in the assay with MCF7 breast it was above 12.5 µM. Moreover, the TGI was 3.55 µM in the assay with NCI-H460 lung, above 12.5 µM in the assay on OVCAR-4 ovarian, above 11.4 µM in the assay with U251 CNS and above 12.5 µM in the assay on UACC-257 melanoma.

For the compound `CCSc1nc(-c2cccs2)nc2ccc(I)cc12`, the TGI in the assay on A549 NSCLC, in the assay on HCT-116 colon, in the assay on HOP-62 NSCLC, in the assay with HT29 colon, in the assay on IGROV1 ovarian and in the assay with MCF7 breast was above 100 µM throughout. For the same compound, the TGI in the assay with NCI-H460 lung, with OVCAR-4 ovarian, in the assay on U251 CNS and with UACC-257 melanoma was above 100 µM in each case.

Turning to `NCCNCCNc1ccc(NCCNCCN)c2c1C(=O)c1c(O)ccc(O)c1C2=O`, the TGI in the assay on A549 NSCLC, with HCT-116 colon, in the assay on HOP-62 NSCLC, with HT29 colon, with IGROV1 ovarian and in the assay on MCF7 breast was above 100 µM each time. The TGI with NCI-H460 lung, with OVCAR-4 ovarian, with U251 CNS and in the assay on UACC-257 melanoma was above 100 µM in each case.

Consider `c1ccc([P+](c2ccccc2)(c2ccccc2)c2ccc(-c3ccc([P+](c4ccccc4)(c4ccccc4)c4ccccc4)cc3)cc2)cc1`, for which the TGI in the assay on A549 NSCLC is 87.9 µM; in the assay with HCT-116 colon, 58 µM; with HOP-62 NSCLC it was above 100 µM; with HT29 colon, 63.5 µM; with IGROV1 ovarian, 13.4 µM; in the assay on MCF7 breast, above 100 µM. The TGI was above 100 µM in the assay with NCI-H460 lung, 94.8 µM with OVCAR-4 ovarian, above 100 µM in the assay with U251 CNS and 63 µM with UACC-257 melanoma.

Turning to `Nc1nc(OCC2CCCCC2)c2[nH]cnc2n1`, the TGI in the assay on A549 NSCLC was 81.5 µM; with HCT-116 colon, 74 µM; in the assay with HOP-62 NSCLC, 53.9 µM; with HT29 colon it was 48.5 µM; in the assay on IGROV1 ovarian, above 48.6 µM; with MCF7 breast, above 100 µM. Further, the TGI with NCI-H460 lung was above 67.9 µM; in the assay on OVCAR-4 ovarian it was 42.3 µM; in the assay with U251 CNS, above 73.7 µM; with UACC-257 melanoma, 61.8 µM.

As for `CCOP(=O)(OCC)C(Nc1cccc(F)c1)c1ccc(N(C)C)cc1` (stereo not given), the TGI with A549 NSCLC, in the assay with HCT-116 colon, in the assay with HOP-62 NSCLC, with HT29 colon, in the assay on IGROV1 ovarian and in the assay on MCF7 breast was above 100 µM each time. Also, the TGI with NCI-H460 lung, in the assay with OVCAR-4 ovarian, with U251 CNS and with UACC-257 melanoma was above 100 µM throughout.

For `CN(C)c1ccc(/C=c2/c3ccccc3n3c2cc(NC(=O)NCCC[N+](C)(C)C)[n+]3C)cc1`, the TGI was above 100 µM in the assay with A549 NSCLC; above 100 µM in the assay with HCT-116 colon; above 100 µM in the assay on HOP-62 NSCLC; above 100 µM with HT29 colon; 46.9 µM in the assay on IGROV1 ovarian; above 100 µM in the assay with MCF7 breast. For the same compound, the TGI is above 100 µM in the assay on NCI-H460 lung, 50.1 µM with OVCAR-4 ovarian, above 100 µM with U251 CNS and above 100 µM with UACC-257 melanoma.
